Measured values: PubChem BioAssay (NCI)
“And” between values parts separate entries of the source, which are not always exact repeats. Identical values can stand only once.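 Protocol summary: plate cells (96-well), add compound at 5 concentrations, incubate 48 h, interpolate endpoints linearly. Abbreviation: GI50, concentration required for 50% inhibition of growth. TGI marks complete inhibition of growth.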

How the values were obtained:
Test in all cases: growth of human tumour cells (NCI), 48 h
NCI-H522 lung = test system: NCI-H522 lung
EKVX NSCLC = test system: EKVX NSCLC
HL-60(TB) leukemia = test system: HL-60(TB) leukemia
CCRF-CEM leukemia = test system: CCRF-CEM leukemia
UACC-257 melanoma = test system: UACC-257 melanoma
CAKI-1 renal = test system: CAKI-1 renal
UO-31 renal = test system: UO-31 renal
HOP-92 NSCLC = test system: HOP-92 NSCLC
MCF7 breast = test system: MCF7 breast
DU-145 prostate = test system: DU-145 prostate

Row | SMILES | TGI (NCI-H522 lung) [µM] | TGI (EKVX NSCLC) [µM] | TGI (HL-60(TB) leukemia) [µM] | TGI (CCRF-CEM leukemia) [µM] | TGI (UACC-257 melanoma) [µM] | TGI (CAKI-1 renal) [µM] | TGI (UO-31 renal) [µM] | TGI (HOP-92 NSCLC) [µM] | TGI (MCF7 breast) [µM] | TGI (DU-145 prostate) | GI50 (MCF7 breast) [µM] | GI50 (DU-145 prostate) [µM] | GI50 (HL-60(TB) leukemia) [µM] | GI50 (CCRF-CEM leukemia) [µM] | GI50 (UACC-257 melanoma) [µM] | GI50 (CAKI-1 renal) [µM] | GI50 (UO-31 renal) [µM] | GI50 (HOP-92 NSCLC) [µM] | GI50 (NCI-H522 lung) [µM] | GI50 (EKVX NSCLC)
1 | N#CCc1ccc(C(C#N)/C(CCCC(=O)Nc2cccc([N+](=O)[O-])c2)=N/NC(N)=S)cc1 (stereo unspecified) | > 100 | > 100 | > 100 | > 100 | > 100 | > 100 | > 100 | > 100 |  |  |  |  |  |  |  |  |  |  |  | 
2 | CC(C)CCCC(=O)CCCCCCC(=O)CCN(O)C(=O)C(N)CO (stereo unspecified) |  | 27.5 | 60.2 | > 100 | 35.1 | 39.4 | 26.7 |  | 44.7 | 37.4 µM |  |  |  |  |  |  |  |  |  | 
3 | COc1ccc(-c2nnc(COc3ccc(NC(=O)Nc4ccc(Cl)c(C(F)(F)F)c4)cc3F)o2)cc1 |  |  | 6.12 | 40 | 11.2 | 29.2 | 16.6 | 5.45 | 14.3 | 11.1 µM | 3.03 | 3.1 | 2.41 | 3.06 | 2.41 | 4.07 | 2.88 | 1.87 |  | 
4 | CC1(C)N=C(N)N=C(N)N1c1ccc(OCc2ccc(S(=O)(=O)F)c(Cl)c2)c(Cl)c1 | > 100 | > 100 | > 100 | > 100 | > 100 |  | > 100 |  | > 100 | > 100 µM | 0.641 | 4 | 1.35 | 1.06 | 2.38 |  | 46 |  | 3.28 | > 100 µM
5 | CC1=N/C(=C\c2cccc([N+](=O)[O-])c2)C(=O)O1 | > 100 | > 100 | > 100 | > 100 | > 100 |  | > 100 | > 100 |  |  |  |  |  |  |  |  |  |  |  | 
6 | COc1ccc(/C(Cl)=C(\C=O)c2ccc([N+](=O)[O-])cc2)cc1 | > 46.8 | > 68.8 | 10.7 | 23.2 | 64.9 | 33.8 | 56.2 | 31.2 |  |  |  |  |  |  |  |  |  |  |  | 
7 | CC(C)c1ccc(C(c2ccc(OCC(=O)O)cc2)c2ccc(C(C)C)cc(=O)c2O)c(O)c(=O)c1 |  | > 100 | 15 | 85.2 | 41.6 | 18.1 |  | 0.956 |  |  |  |  |  |  |  |  |  |  |  | 
8 | N.N.O=C([O-])P(=O)([O-])[O-].[Na+].[Pt+4] | > 100 | > 100 | > 100 | > 100 | > 100 | > 100 | > 100 |  |  |  |  |  | > 100 | > 100 | > 100 | > 100 | > 100 |  | > 100 | > 100 µM
9 | COC(=O)C12C3C4C1C1C2C3C41NC(=O)c1csc([C@@H](C[C@H](C(C)C)N(C)C(=O)[C@@H](NC(=O)[C@H]2CCCCN2C)C2CC2)OC(C)=O)n1 (stereo partly specified) | 1.27 | > 33.3 | 0.00777 | > 33.3 | > 33.3 |  | > 33.3 |  | > 33.3 | > 33.3 µM | 0.00606 | 0.00671 | 0.00356 | 0.00732 | > 16.6 |  | 0.35 |  | 0.00401 | 0.08 µM
10 | CCOC(=O)CCn1[nH]c(=O)c(Cl)c(Cl)c1=O | > 100 | > 100 | > 100 | > 100 | > 100 | > 100 | > 100 | > 100 |  |  |  |  |  |  |  |  |  |  |  | 
11 | CCc1ccc(Nc2ccc([N+](=O)[O-])cc2[N+](=O)[O-])cc1 |  | > 100 | > 100 | > 100 | > 100 | > 100 | > 100 |  |  |  |  |  |  |  |  |  |  |  |  | 
12 | COc1ccc(CNc2nc3cc(C(F)(F)F)ccc3nc2C)cc1OC | 92.7 | 72.6 | 50.6 | > 100 | 42.6 | > 100 | 65.1 |  |  |  |  |  |  |  |  |  |  |  |  | 
13 | COc1ccc2c3c(coc13)C(CCC(=O)O)CC2 (stereo unspecified) |  | > 100 |  |  | > 100 | > 100 |  |  |  |  |  |  |  |  |  |  |  |  |  | 
14 | COc1cc2c(c(OC)c1)C1(CC(CC#N)C2)SCCS1 (stereo unspecified) | 4.69 |  | > 100 | > 100 | > 100 | > 100 | > 100 |  |  |  |  |  |  |  |  |  |  |  |  | 
15 | COC1=CC2(C=CC1=O)c1cc(OC)c(OC)cc1CCN2C(=O)c1ccccc1 (stereo unspecified) | > 100 | > 100 |  | > 100 | > 100 | > 100 | > 100 | > 100 |  |  |  |  |  |  |  |  |  |  |  | 
16 | O=C(/C=C/c1c(O)ccc2ccccc12)c1ccccc1 | > 100 | > 100 | > 100 | > 100 | > 100 | > 100 | > 100 | > 100 |  |  |  |  |  |  |  |  |  |  |  | 
17 | COC(C(O)c1ccc2c(c1)OCO2)P(=O)(c1ccccc1)c1ccccc1 (stereo unspecified) | > 100 | > 100 | > 100 | > 100 | > 100 | > 100 | > 100 | > 100 |  |  |  |  |  |  |  |  |  |  |  | 
18 | C/C=C(\C)CC/C=C/CO[Si](C)(C)C(C)(C)C | > 100 | > 100 | 52.1 | 49.6 | > 100 | > 100 | > 100 |  | > 100 | > 100 µM |  |  |  |  |  |  |  |  |  | 
19 | Cc1ccc(-c2cc(=O)c3cc(C)c(C)c(C(=O)O)c3o2)cc1C | > 100 | > 100 | > 100 | > 100 | > 100 | 89.5 | > 100 | > 100 |  |  |  |  |  |  |  |  |  |  |  | 
20 | CC[CH2][Sn]([Cl])([Cl])[CH2]CC.Oc1ccccc1C=NCCN=Cc1ccccc1O |  | 27.3 |  | 41.8 | 17.8 | 12.7 | 21.5 | 8.8 | 15.8 | 24.6 µM | 3.12 | 12.1 |  | 2.16 | 3.61 | 2.46 | 5.45 | 2.09 |  | 12.9 µM
21 | NCCCn1c2c(c3ccc([N+](=O)[O-])cc3c1=O)C(=O)c1cc(Br)ccc1-2 |  | 0.223 |  | 0.0159 |  | 0.623 | 0.184 |  | 0.0696 | 0.00873 µM and 0.0121 µM |  | 0.00205 |  | 0.0033 | 0.456 | 0.219 | 0.0575 |  | 0.29 | 0.0757 µM and 0.0501 µM
22 | Fc1ccc(C2SCc3nc4ccccc4n32)cc1Cl (stereo unspecified) | 35.2 | 92.8 | 47.6 | 87.4 | 56.7 | 38.4 | 43.5 | 30.1 |  |  |  |  |  |  |  |  |  |  |  | 
